Results reported in patent US5591741A, “Fungicidal spiroheterocyclic derivatives” (American Cyanamid Company, priority 1993, dated 1997).

Legend:
[1] = system: Botrytis cinerea; test: Direct protectant activity against broad bean grey mould (BCB); assay type: in vivo; conditions: direct protectant foliar spray, 600 ppm, 4 days
In short: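 Protectant foliar test: lesion coverage assessed 4 days after inoculation and rated relative to untreated or diluent-sprayed plants. Compound applied at 600 ppm to cv The Sutton leaves 24 h before 10^6 conidia/ml suspension; incubation at 22 °C in high humidity.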

[2] = system: Erysiphe graminis f.sp. hordei; test: Activity against barley powdery mildew, direct therapeutic (EGT); assay type: in vivo; conditions: direct therapeutic foliar spray, 600 ppm, up to 7 days
In short: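 A curative spray at 600 ppm was applied to single-leaf Golden Promise barley inoculated with powdery mildew conidia the previous day. After up to 7 days at 18 °C and 40% humidity, disease control was rated from percent leaf area sporulating relative to untreated or diluent-sprayed controls.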

[3] = system: Leptosphaeria nodorum; test: Activity against wheat leafspot (LN); assay type: in vivo; conditions: direct therapeutic foliar spray, 600 ppm, 6-8 days
In short: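 Therapeutic foliar spray: compound at 600 ppm applied to single-leaf wheat (cv Norman) 24 h after inoculation with 1.5×10^6 conidia/ml. Disease control scored after 6-8 days at 22° C and 70% humidity as lesions per leaf versus untreated or diluent-sprayed controls.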

[4] = system: Erysiphe graminis f.sp. hordei; test: Direct protectant activity against barley powdery mildew (EGP); assay type: in vivo; conditions: direct protectant foliar spray, 8 days
In short: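 Rating reflects percentage of leaf area with sporulation compared with untreated or diluent-sprayed controls. Protectant spray was applied to single-leaf barley (cv Golden Promise) 24 h before conidia inoculation. Plants were kept at 18 °C and 40% RH throughout, with 8 days of disease development.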

[5] = system: Alternaria solani; test: Activity against tomato early blight (AS); assay type: in vivo; conditions: Table VI; tomato seedlings, contact prophylactic foliar spray, 4 days
In short: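 Plants were challenged with A. solani conidia (10^4 spores/ml) 24 h after a protective foliar spray of compound in 50:50 acetone/water plus 0.04% Tween 20. Held humid at 21° C for 4 days, then percent leaf area with lesions was scored as a rating relative to controls.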

[6] = system: Phytophthora infestans; assay type: in vivo; conditions: tomato, direct protectant foliar spray
[7] = system: Pyricularia oryzae; assay type: in vivo; conditions: rice seedlings, direct therapeutic foliar spray, 600 ppm, 4-5 days
[8] = system: Pseudocercosporella herpotrichoides; test: Activity against wheat eyespot in-vitro (PHI); assay type: cell-based; conditions: 10 ppm, 10 days, 20° C., mycelial growth
In short: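 Mycelial growth was scored after 10 days at 20 °C against untreated or diluent controls. The broth was half-strength potato dextrose, holding 10 ppm test compound (from acetone) and 5×10^4 fragments/ml of the eyespot fungus.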

[9] = system: Venturia inaequalis; test: Activity against apple scab in-vitro (VII); assay type: cell-based; conditions: 10 ppm, 10 days, 20° C., mycelial growth
In short: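 V. inaequalis propagules (5×10^4/ml, malt agar-grown) were exposed in half-strength PDB to 10 ppm final test compound delivered in acetone. Growth was scored after incubation for 10 days at 20° C, as a rating relative to untreated or diluent-sprayed controls.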

[10] = system: Plasmopara viticola; test: Antisporulant activity against vine downy mildew (PVA); assay type: in vivo; conditions: vine leaves, antisporulant foliar spray, 600 ppm, 750 l/ha
In short: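 Cabernet Sauvignon vines (~8 cm) inoculated on lower leaf surfaces with 5×10^4 zoosporangia/ml, held 24 h at 21° C high humidity then 24 h glasshouse. Infected leaves sprayed underside with 600 ppm compound in 1:1 water/acetone, 0.04% Tween 20, 750 l/ha; 96 h glasshouse, 24 h humidity. Sporulating leaf area rated versus control.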

[11] = system: Rhizoctonia solani; test: Activity against Rhizoctonia in-vitro (RSI); assay type: cell-based; conditions: 10 ppm, 10 days, 20° C., mycelial growth
In short: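 Compound at a final 10 ppm (acetone vehicle) in half-strength PDB, inoculated with 5×10^4 fragments/ml of shaken-culture R. solani mycelium. After incubation at 20° C for 10 days, growth scored as a rating versus untreated or diluent-treated controls.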

SMILES | disease control rating BCB [1] | disease control rating EGT [2] | disease control rating LN [3] | disease control rating EGP [4] | disease control rating AS [5] | disease control rating PIP [6] | disease control rating PO [7] | disease control rating PHI [8] | disease control rating VII [9] | disease control rating PVA [10] | disease control rating RSI [11]
CCCCCCNC1COC2(CCC(C(C)(C)C)CC2)C1 (centres unmarked) [Compound 37] | 1 (about 50-80% disease control) | 2 (greater than 80% disease control) | 0 (less than 50% disease control) | 2 (greater than 80% disease control) | 0 (less than 50% disease control) | 0 (less than 50% disease control) | 0 (less than 50% disease control) | 1 (about 50-80% disease control) | 0 (less than 50% disease control) | 0 (less than 50% disease control) | 0 (less than 50% disease control)
CC(C)CNC1COC2(CCC(C(C)(C)C)CC2)C1 (centres unmarked) [Compound 66] | 2 (greater than 80% disease control) | 2 (greater than 80% disease control) | 0 (less than 50% disease control) | 2 (greater than 80% disease control) | 0 (less than 50% disease control) | 0 (less than 50% disease control) | 0 (less than 50% disease control) | 0 (less than 50% disease control) | 0 (less than 50% disease control) | 0 (less than 50% disease control) | 0 (less than 50% disease control)
Cc1ccc(CNC2COC3(CCC(C(C)(C)C)CC3)C2)cc1 (centres unmarked) [Compound 28] | 0 (less than 50% disease control) | 2 (greater than 80% disease control) | 0 (less than 50% disease control) | 2 (greater than 80% disease control) | 0 (less than 50% disease control) | 0 (less than 50% disease control) | 0 (less than 50% disease control) | 0 (less than 50% disease control) | 2 (greater than 80% disease control) | 0 (less than 50% disease control) | 0 (less than 50% disease control)
CC(C)(C1CCCCC1)C1CCC2(CC1)CC(NC1CCCCC1)CO2 (centres unmarked) [Compound 142] | 0 (less than 50% disease control) | 2 (greater than 80% disease control) | 0 (less than 50% disease control) | 2 (greater than 80% disease control) | 0 (less than 50% disease control) | 1 (about 50-80% disease control) | 0 (less than 50% disease control) | 2 (greater than 80% disease control) | 2 (greater than 80% disease control) | 0 (less than 50% disease control) | 2 (greater than 80% disease control)
CCCCCCNC1COC2(CCCCC2)C1 (centres unmarked) [Compound 32] | 0 (less than 50% disease control) | 2 (greater than 80% disease control) | 0 (less than 50% disease control) | 2 (greater than 80% disease control) | 0 (less than 50% disease control) | 0 (less than 50% disease control) | 0 (less than 50% disease control) | 0 (less than 50% disease control) | 0 (less than 50% disease control) | 0 (less than 50% disease control) | 0 (less than 50% disease control)
CC(C)(C)CC(C)(C)NC1COC2(CCC(C(C)(C)C)CC2)C1 (centres unmarked) [Compound 106] | 0 (less than 50% disease control) | 2 (greater than 80% disease control) | 0 (less than 50% disease control) | 2 (greater than 80% disease control) | 0 (less than 50% disease control) | 2 (greater than 80% disease control) | 0 (less than 50% disease control) | 0 (less than 50% disease control) | 1 (about 50-80% disease control) | 0 (less than 50% disease control) | 0 (less than 50% disease control)
CCC(C)(C)C1CCC2(CC1)CC(N1CC(C)OC(C)C1)CO2 (centres unmarked) [Compound 53] | 1 (about 50-80% disease control) | 2 (greater than 80% disease control) | 0 (less than 50% disease control) | 2 (greater than 80% disease control) | 0 (less than 50% disease control) | 0 (less than 50% disease control) | 0 (less than 50% disease control) | 1 (about 50-80% disease control) | 1 (about 50-80% disease control) | 0 (less than 50% disease control) | 0 (less than 50% disease control)
CC(C)(C)C1CCC(NC2COC3(CCC(C(C)(C)C)CC3)C2)CC1 (centres unmarked) [Compound 109] | 2 (greater than 80% disease control) | 2 (greater than 80% disease control) | 0 (less than 50% disease control) | 2 (greater than 80% disease control) | 1 (about 50-80% disease control) | 2 (greater than 80% disease control) | 0 (less than 50% disease control) | 1 (about 50-80% disease control) | 2 (greater than 80% disease control) | 0 (less than 50% disease control) | 1 (about 50-80% disease control)
CCCCCCC(C)NC1COC2(CCC(C(C)(C)C)CC2)C1 (centres unmarked) [Compound 105] | 1 (about 50-80% disease control) | 2 (greater than 80% disease control) | 1 (about 50-80% disease control) | 2 (greater than 80% disease control) | 0 (less than 50% disease control) | 0 (less than 50% disease control) | 0 (less than 50% disease control) | 2 (greater than 80% disease control) | 2 (greater than 80% disease control) | 0 (less than 50% disease control) | 2 (greater than 80% disease control)
CC(C)CNC1COC2(CCC(C(C)(C)CC(C)(C)C)CC2)C1 (centres unmarked) [Compound 137] | 0 (less than 50% disease control) | 2 (greater than 80% disease control) | 2 (greater than 80% disease control) | 2 (greater than 80% disease control) | 0 (less than 50% disease control) | 0 (less than 50% disease control) | 0 (less than 50% disease control) | 2 (greater than 80% disease control) | 1 (about 50-80% disease control) | 0 (less than 50% disease control) | 2 (greater than 80% disease control)
